Experiments:
[1] = tested on: Staphylococcus aureus; assay: Residual biocidal effect of skin associated iodine, colony counts from inoculated treated skin; type: in vivo; conditions: solution with 700 ppm of triiodide, but no molecular iodine
Method: 5. […] […] […] […] The samples were contacted with the arm for 30 seconds. After contact the treated arm was flushed with water for 15 seconds and dried.
[…] Two hours after contact each area was inoculated with […] of a 1:100 dilution of a 48 hour soy-trypticase culture of Staphylococcus aureus. Ninety minutes after inoculation the mouths of sterile 25 mL flasks filled with 2 mL of soy-trypticase with 2% Tween 80 were placed over the marked skin areas. The flasks were gently shaken for 1 minute and a colony count was performed on blood agar plates after incubation at 37° C. for 48 hours. The residual biocidal effect from skin associated molecular iodine was determined by subtracting the log of the colony counts from the areas of skin that were contacted with iodine from the controls (log colony count from untreated skin). The average difference in colony counts between treated and untreated skin was 2.4 logs.

[2] = tested on: epidermis; assay: Staining of epidermis by triiodide solutions, 10 second contact on forearm; type: in vivo, human
Method: 3. […] Solutions of triiodide were prepared by dissolving elemental iodine into oxygen-free solutions of sodium iodide that were at a pH of 4.5. A molar excess of iodide was used. Based on thiosulfate titrations, potentiometric measurements of iodine and ion selective electrode measurements of iodide ion, essentially all of the elemental iodine was converted into triiodide. Solutions of triiodide were made that varied from 100 to 25,000 ppm. Four mL of each sample was transferred to a 1.0 dram vial (Kimble catalog #60931) at room temperature and placed on the forearm of a subject and then the forearm was inverted to initiate contact of the sample with the triiodide solution. The samples were held on the arm for 10 seconds.
The contact areas were checked for stains at 10 minutes and 3 hours after exposure.

[3] = tested on: Human Skin; assay: Coloration of human skin by a 30 second exposure (vial contact on forearm); hue by Pantone chips, intensity against Brown No. 3 dye; type: in vivo
Text: 1. […] Elemental iodine was weighed on an analytical balance and dissolved in one liter of water that had been acidified with 2 drops of 0.1N hydrochloric acid. The concentration of molecular iodine in the water was confirmed by potentiometric analysis (Gottardi, W., 1983. Fresenius Z. Anal. Chem., Vol. 314, pages 582-585). Samples were also titrated with thiosulfate to determine that at least 95% of the theoretical yield of titratable iodine was in the form of molecular iodine as opposed to triiodide. The concentration of molecular iodine was varied from 25 ppm to 330 ppm.
One dram vials (Kimble catalog #60931) were used to deliver 4 mL of the room temperature iodine solutions samples. The vials were placed on the forearm of a subject and then the forearm was inverted to initiate contact of the sample with the iodine solution. The contact area was a circle with a diameter of 1.3 cm. The samples were held on the arm for 30 seconds at room temperature. Three different subjects were used for this experiment. Immediately after the 30 second contact time the arms of the subjects were examined for stains; 10 minutes after the end of the contact time all subjects arms were examined for stains again..
For the purposes of this application, two different parameters were used to characterize the color and intensity of the term stain. The hue of the color imparted to skin was characterized by using the Pantone Color Matching System (Pantone Color Specifier, Pantone Inc., Carlstadt, N.J.) which allows comparison with 1,012 defined colors on two types of paper. Stains from triiodide were matched to the Pantone color chip No. 152C. Short-lived coloration from molecular iodine were matched to the Pantone color chip 1375C.
The intensity of any coloration on skin was characterized by applying an aqueous solution of known concentrations of a food dye, Brown No. 3 (Crompton & Knowles, Mahwah, N.J. —Code DP935159), for 10 seconds using the method described above for application of iodine. Brown No. 3 was applied to the skin at concentrations that ranged from 500 ppm to 30 ppm and the intensity of the color from Brown No. 3 was compared to the intensity of coloration from iodine compositions. For instance, the intensity of color 10 minutes after a 30 second contact with a 600 ppm aqueous triiodide solution was equivalent to the color from a 10 second exposure to a 250 ppm Brown No. 3 solution. In contrast, the intensity of color 10 minutes after a 30 second contact with a 300 ppm aqueous molecular iodine solution was equivalent to the color from a ten second exposure to a 30 ppm Brown No. 3 solution which is barely discernible.

Structure (SMILES): I[IH]I [triiodide, reference compound]
- Reduction in the concentration of pathogens [1]: no measurable reduction
- Staining at three hours ([2]; 100 ppm triiodide): staining was present at three hours but it was not visibly noticeable
- Degree of color ([2]; 700 ppm triiodide, 3 hours after contact): minimally discernable
- Coloration of the epidermis 3 hours after contact ([2]; triiodide at concentrations from 25,000 to 700 ppm): A definite coloration of the epidermis was evident
- Intensity of color on skin, equivalent Brown No. 3 solution (10 second exposure) ([3]; 10 minutes after a 30 second contact with a 600 ppm aqueous triiodide solution): 250 ppm
- Hue of the color imparted to skin, matched Pantone color chip ([3]; Pantone Color Matching System): 152C
